Source: EP0143987A1, “Therapeutic compositions endowed with antiviral activity” (Stendardi, Anna Gioia, priority 1983, dated 1985)

What was measured:
HSV-1 = assay: appearance of resistant HSV-1 mutants following treatment; format: cell-based; conditions: for Resistant mutants/10^4 viruses: plaques counted 72 hours later; for HSV-1 mutants resistant, pre-existing within the virus population: approximate restatement of Table 2 (drugs used individually)
Description: Finally, tests were carried out which aimed at quantifying the appearance of resistant HSV-1 mutants following treatment with acyclovir and BVDU, used individually or in association. For these tests the two compounds were used in concentrations which were 3.3 times (acyclovir) and 1.4 times (BVDU) the ID 100 value, so as to be able to completerly prevent the multiplication of sensitive viruses. For this 5 purpose, […] Vero cells, infected with HSV-1 at a multiplicity of 0.3 PFU/cell, were seeded on a preformed monolayer of uninfected Vero cells and left to adhere for 4 hours at 35°C in T-199 with 2% serum, in the presence of the inhibitors.
The liquid culture medium was then removed and replaced with new medium containing the inhibitors and 0.75% carboxymethylcellulose.
The number of plaques developed following multiplication of resistant viruses was determined 72 hours later.

[1] = system: type 2 (HSV-2) herpes simplex viruses; conditions: background statement; cited from earlier work
[2] = system: type 1 (HSV-1) herpes simplex viruses; conditions: background statement; cited from earlier work
[3] = system: herpex simplex virus type 1 (ATCC VR-733); assay: plaque reduction test in Vero cells; format: cell-based; conditions: mean of three samples, 72 hours, untreated control 134 plaques
Description: The mutual synergistic activity of acyclovir and BVDU was evaluated on the herpex simplex virus type 1 (ATCC VR-733), grown in Vero cells (ATCC CCL 81) in MEM T-199 containing 2% calf serum.
The method used was the plaque reduction test /P. Collins et al. (1977) Annals, of the New York Academy of Sciences 284, pp. 49-59/. For this purpose, confluent monolayers of Vero cells, seeded in multi-well plates (diameter 3.5 cm) at a concentration of […] cells/plate, were infected with 150 plaque-forming units (PFU) of HSV-1 per plate.
After an adsorption period of one hour at room temperature and removal of the unadsorbed virus, the monolayers were washed with buffered saline solution and then incubated at 35°C, in 5% CO2, in MEM T-199 containing 2% calf serum and 0.75% carboxymethylcellulose, both in the absence and in the presence of the inhibitors.
72 hours later, the infected monolayers were washed three times with saline solution and dyed with a 0.1% methylene blu solution in order to be able to count the number of lysis plaques resulting from the multiplication of the virus.
The number represent the mean value of three samples, and correspond to the number of plaques obtained in the absence or in the presence of acyclovir and BVDU, used either individually or in association.
The above values were then expressed as percentage of the number of plaques obtained in untreated control cultures and plotted, in the ordinate axis, against the logarithm of the concentration used (in abscissa).
This enabled to determine the concentration of the two drugs (alone or in combination) which were necessary for reducing the number of viral plaques by 100% (ID100) […]

Structure (SMILES) | Resistant mutants/10^4 viruses (HSV-1; Acyclovir 2.5 μM alone) | HSV-1 mutants resistant, pre-existing within the virus population (HSV-1) | inhibition of the multiplication of HSV-2 [1] | inhibition of the multiplication of HSV-1 [2] | number of plaques ([3]; Acyclovir 0.075 µM alone) | number of plaques ([3]; Acyclovir 0.15 µM alone) | number of plaques ([3]; Acyclovir 0.3 µM alone) | number of plaques ([3]; Acyclovir 0.6 µM alone) | number of plaques ([3]; Acyclovir 1.2 µM alone) | Resistant mutants/10^4 viruses (HSV-1; BVDU 1.0 μM alone) | number of plaques ([3]; BVDU 0.01 µM alone) | number of plaques ([3]; BVDU 0.02 µM alone) | number of plaques ([3]; BVDU 0.04 µM alone) | number of plaques ([3]; BVDU 0.8 µM alone)
Nc1nc2c(ncn2COCCO)c(=O)[nH]1 [Acyclovir, 9-(2-hydroxyethoxymethyl) guanine] | 28.6 /10^4 viruses | ~3 per 1000 sensitive viruses | inhibits to an equal extent | inhibits to an equal extent | 111 | 99 | 52 | 8 | 0 | – | – | – | – | –
O=c1[nH]c(=O)n([C@H]2C[C@H](O)[C@@H](CO)O2)cc1/C=C/Br [BVDU, E-5-(2-bromovinyl)-2'-deoxyuridine] | – | ~1 per 1000 sensitive viruses | not against HSV-2 | effective against HSV-1 | – | – | – | – | – | 13.8 /10^4 viruses | 141 | 131 | 109 | 81
